Source: US10072011B2, “Substituted bridged urea analogs as sirtuin modulators” (GlaxoSmithKline Intellectual Property (No.2) Limited, priority 2014, dated 2018)
Where two headings read alike, the source gives them in different places.

Target: T1, SIRT1 (Homo sapiens, UniProt Q96EB6)
T1 sequence (Q96EB6 1-747): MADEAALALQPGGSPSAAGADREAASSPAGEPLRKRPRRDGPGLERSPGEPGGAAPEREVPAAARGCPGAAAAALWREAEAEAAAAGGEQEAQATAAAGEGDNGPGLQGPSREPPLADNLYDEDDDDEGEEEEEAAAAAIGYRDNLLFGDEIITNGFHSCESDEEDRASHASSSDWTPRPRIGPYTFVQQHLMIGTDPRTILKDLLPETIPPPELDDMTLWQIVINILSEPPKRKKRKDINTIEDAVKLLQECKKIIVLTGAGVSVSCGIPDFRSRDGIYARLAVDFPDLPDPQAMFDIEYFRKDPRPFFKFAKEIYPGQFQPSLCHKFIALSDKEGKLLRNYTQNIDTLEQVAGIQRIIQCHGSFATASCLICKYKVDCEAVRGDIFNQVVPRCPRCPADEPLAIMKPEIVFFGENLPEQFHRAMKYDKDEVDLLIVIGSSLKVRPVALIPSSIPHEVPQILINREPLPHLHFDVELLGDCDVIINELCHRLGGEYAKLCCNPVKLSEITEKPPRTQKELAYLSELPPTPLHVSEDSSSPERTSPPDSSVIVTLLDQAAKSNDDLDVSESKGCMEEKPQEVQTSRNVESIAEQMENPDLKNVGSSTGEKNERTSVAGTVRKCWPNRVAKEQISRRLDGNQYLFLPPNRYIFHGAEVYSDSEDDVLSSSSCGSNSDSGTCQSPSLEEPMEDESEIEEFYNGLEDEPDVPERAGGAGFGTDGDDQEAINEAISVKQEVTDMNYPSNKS
Experiment: Trp mass spectrometry assay of SIRT1 activation (Ac-R-H-K-K(Ac)-W-NH2 peptide)
Assay type: biochemical
Settings: for Emax: 25 min, read-out: TRP MAX RESP (percent maximum fold activation)
In short: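 N-terminal His-tagged human SIRT1, expressed in BL21(DE3) and purified, was incubated 25 min with an acetylated Trp peptide and NAD plus test compound at varying concentrations, then quenched with formic acid. OAADPR or deacetylated peptide was quantified by mass spectrometry versus compound-free control; EC1.5 is the concentration giving 50% activity increase, with percent maximum activation.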

[1] = Trp peptide 0.5 μM, 120 μM βNAD+, 10 nM SIRT1, 25 min at 25° C., relative to control (100%)
[2] = Trp peptide 0.5 μM, 120 μM βNAD+, 10 nM SIRT1, 25 min at 25° C.

CN(C)CCOc1ccnc(NC(=O)N2c3nc(C(=O)NCC(F)(F)F)ccc3N3CC[C@H]2C3)c1 [Example 227, (4S)—N5-(4-(2-(dimethylamino)ethoxy)pyridin-2-yl)-N7-(2,2,2-trifluoroethyl)-3,4-dihydro-1,4-methanopyrido[2,3-b][1,4]diazepine-5,7(2H)-dicarboxamide] was tested, and the Emax [1] was greater than 150% and the “TRP Activity (EC1.5, concentration of test compound that results in 150% activation of SIRT1)” value [2] was “B (EC1.5 1-25 μM)”.
C[C@@H](NC(=O)c1ccc2c(n1)N(C(=O)Cc1ccccn1)[C@H]1CCN2C1)C(F)(F)F [Example 276, (4S)-5-(2-(pyridin-2-yl)acetyl)-N—((R)-1,1,1-trifluoropropan-2-yl)-2,3,4,5-tetrahydro-1,4-methanopyrido[2,3-b][1,4]diazepine-7-carboxamide] was tested, and the Emax [1] was less than 150% and the “TRP Activity (EC1.5, concentration of test compound that results in 150% activation of SIRT1)” value [2] was “C (EC1.5>25 μM)”.
NC[C@H](NC(=O)c1ccc2c(n1)N(C(=O)Nc1ccccn1)[C@H]1CCN2C1)C(F)(F)F (single isomer, unassigned) [Example 50] was tested, and the Emax [1] was greater than 150% and the “TRP Activity (EC1.5, concentration of test compound that results in 150% activation of SIRT1)” value [2] was “A (EC1.5<1 μM)”.
With CONC(=O)c1ccc2c(n1)N(C(=O)Nc1ccccn1)[C@H]1CCN2C1 [Example 228, (4S)—N7-methoxy-N5-(pyridin-2-yl)-3,4-dihydro-1,4-methanopyrido[2,3-b][1,4]diazepine-5,7(2H)-dicarboxamide] the Emax [1] was greater than 150% and the “TRP Activity (EC1.5, concentration of test compound that results in 150% activation of SIRT1)” value [2] was “B (EC1.5 1-25 μM)”.
For Cn1nccc(NC(=O)N2c3nc(C(=O)NCC(F)(F)F)ccc3N3CC[C@H]2C3)c1=O [Example 121, (4S)—N5-(2-methyl-3-oxo-2,3-dihydropyridazin-4-yl)-N7-(2,2,2-trifluoroethyl)-3,4-dihydro-1,4-methanopyrido[2,3-b][1,4]diazepine-5,7(2H)-dicarboxamide], the Emax was greater than 150% and the “TRP Activity (EC1.5, concentration of test compound that results in 150% activation of SIRT1)” value [2] was “A (EC1.5<1 μM)”.
C[C@@H](NC(=O)c1ccc2c(n1)N(C(=O)Nc1cc(C(N)=O)ccn1)[C@H]1CCN2C1)C(F)(F)F [Example 137, (4S)—N5-(4-carbamoylpyridin-2-yl)-N7-((R)-1,1,1-trifluoropropan-2-yl)-3,4-dihydro-1,4-methanopyrido[2,3-b][1,4]diazepine-5,7(2H)-dicarboxamide] was tested, and the Emax [1] was greater than 150% and the “TRP Activity (EC1.5, concentration of test compound that results in 150% activation of SIRT1)” value [2] was “A (EC1.5<1 μM)”.
O=C(N[C@H](CO)C(F)(F)F)c1ccc2c(n1)N(C(=O)Nc1ccccn1)[C@H]1CCN2C1 [Example 16, (4S)—N5-(pyridin-2-yl)-N7-((R)-1,1,1-trifluoro-3-hydroxypropan-2-yl)-3,4-dihydro-1,4-methanopyrido[2,3-b][1,4]diazepine-5,7(2H)-dicarboxamide] was tested, and the Emax [1] was greater than 150% and the “TRP Activity (EC1.5, concentration of test compound that results in 150% activation of SIRT1)” value [2] was “A (EC1.5<1 μM)”.
Cc1ccc2c(NC(=O)N3c4nc(C(=O)NC5CC5(F)F)ccc4N4CC[C@H]3C4)n[nH]c2n1 (single isomer, unassigned) [Example 65] was tested, and the Emax [1] was greater than 150% and the “TRP Activity (EC1.5, concentration of test compound that results in 150% activation of SIRT1)” value [2] was “A (EC1.5<1 μM)”.
For CC(C)(C#N)NC(=O)c1ccc2c(n1)N(C(=O)Nc1ccccn1)[C@H]1CCN2C1 [Example 104, (4S)—N7-(2-cyanopropan-2-yl)-N5-(pyridin-2-yl)-3,4-dihydro-1,4-methanopyrido[2,3-b][1,4]diazepine-5,7(2H)-dicarboxamide], the Emax [1] was greater than 150% and the “TRP Activity (EC1.5, concentration of test compound that results in 150% activation of SIRT1)” value [2] was “B (EC1.5 1-25 μM)”.
C[C@@H](NC(=O)c1ccc2c(n1)N(C(=O)Nc1ncccn1)[C@H]1CCN2C1)C(F)(F)F [Example 130, (4S)—N5-(pyrimidin-2-yl)-N7-((R)-1,1,1-trifluoropropan-2-yl)-3,4-dihydro-1,4-methanopyrido[2,3-b][1,4]diazepine-5,7(2H)-dicarboxamide] was tested, and the Emax [1] was greater than 150% and the “TRP Activity (EC1.5, concentration of test compound that results in 150% activation of SIRT1)” value [2] was “A (EC1.5<1 μM)”.
In the case of Cc1cc(C(=O)NCC(F)(F)F)nc2c1N1CC[C@@H](C1)N2C(=O)Nc1cc(OC[C@H](O)CO)ccn1 [Example 294, (4S)—N5-(4-((R)-2,3-dihydroxypropoxy)pyridin-2-yl)-9-methyl-N7-(2,2,2-trifluoroethyl)-3,4-dihydro-1,4-methanopyrido[2,3-b][1,4]diazepine-5,7(2H)-dicarboxamide], the Emax [1] is reported as less than 150% and the “TRP Activity (EC1.5, concentration of test compound that results in 150% activation of SIRT1)” value [2] is reported as “A (EC1.5<1 μM)”.
With Cc1ncc(-c2ccnc(NC(=O)N3c4nc(C(=O)NCC(F)(F)F)cc(C)c4N4CC[C@H]3C4)c2)o1 [Example 293, (4S)-9-methyl-N5-(4-(2-methyloxazol-5-yl)pyridin-2-yl)-N7-(2,2,2-trifluoroethyl)-3,4-dihydro-1,4-methanopyrido[2,3-b][1,4]diazepine-5,7(2H)-dicarboxamide] the Emax [1] was less than 150% and the “TRP Activity (EC1.5, concentration of test compound that results in 150% activation of SIRT1)” value [2] was “A (EC1.5<1 μM)”.
In the case of C[C@@H](NC(=O)c1ccc2c(n1)N(C(=O)Nc1ncc(F)cc1F)[C@H]1CCN2C1)C(F)(F)F [Example 239, (4S)—N5-(3,5-difluoropyridin-2-yl)-N7-((R)-1,1,1-trifluoropropan-2-yl)-3,4-dihydro-1,4-methanopyrido[2,3-b][1,4]diazepine-5,7(2H)-dicarboxamide], the Emax [1] is reported as greater than 150% and the “TRP Activity (EC1.5, concentration of test compound that results in 150% activation of SIRT1)” value [2] is reported as “B (EC1.5 1-25 μM)”.
With O=C(NC[C@@H]1CCCO1)c1ccc2c(n1)N(C(=O)Nc1ccccn1)[C@H]1CCN2C1 [Example 208, (4S)—N5-(pyridin-2-yl)-N7-(((S)-tetrahydrofuran-2-yl)methyl)-3,4-dihydro-1,4-methanopyrido[2,3-b][1,4]diazepine-5,7(2H)-dicarboxamide] the Emax [1] was greater than 150% and the “TRP Activity (EC1.5, concentration of test compound that results in 150% activation of SIRT1)” value [2] was “B (EC1.5 1-25 μM)”.
For O=C(NC1CC1)c1ccc2c(n1)N(C(=O)Nc1ncccn1)[C@H]1CCN2C1 [Example 204, (4S)—N7-cyclopropyl-N5-(pyrimidin-2-yl)-3,4-dihydro-1,4-methanopyrido[2,3-b][1,4]diazepine-5,7(2H)-dicarboxamide], the Emax [1] was greater than 150% and the “TRP Activity (EC1.5, concentration of test compound that results in 150% activation of SIRT1)” value [2] was “B (EC1.5 1-25 μM)”.
O=C(NC1CCC1)c1ccc2c(n1)N(C(=O)Nc1ccccn1)[C@H]1CCN2C1 [Example 7, (4S)—N-7-cyclobutyl-N-5-(pyridin-2-yl)-3,4-dihydro-1,4-methanopyrido [2,3-b] [1, 4] diazepine-5, 7(2H)-dicarboxamide] was tested, and the Emax [1] was greater than 150% and the “TRP Activity (EC1.5, concentration of test compound that results in 150% activation of SIRT1)” value [2] was “A (EC1.5<1 μM)”.
O=C(NCc1nccs1)c1ccc2c(n1)N(C(=O)Nc1cc(OC[C@H](O)CO)ccn1)[C@H]1CCN2C1 [Example 195, (4S)—N5-(4-((R)-2,3-dihydroxypropoxy)pyridin-2-yl)-N7-(thiazol-2-ylmethyl)-3,4-dihydro-1,4-methanopyrido[2,3-b][1,4]diazepine-5,7(2H)-dicarboxamide] was tested, and the Emax [1] was greater than 150% and the “TRP Activity (EC1.5, concentration of test compound that results in 150% activation of SIRT1)” value [2] was “B (EC1.5 1-25 μM)”.
In the case of N[C@H](CNC(=O)c1ccc2c(n1)N(C(=O)Nc1ncccn1)[C@H]1CCN2C1)C(F)(F)F (single isomer, unassigned) [Example 235], the Emax [1] is reported as greater than 150% and the “TRP Activity (EC1.5, concentration of test compound that results in 150% activation of SIRT1)” value [2] is reported as “A (EC1.5<1 μM)”.
